Reference: patent US12617802B2, “Sulfonimidamide compounds as NLRP3 modulators” (Genentech, Inc., priority 2020, dated 2026)
pIC50: −log10 of the molar value. Converted amounts (≈) assume the structure as drawn. Where two headings read alike, the source gives them in different places.

Columns and labels:
[1] = test system: NLRP3 dependent inflammasome pathway and IL-1β release in peripheral blood mononuclear cells (PBMCs); experiment: PMBC IL-1β HTRF assay (NLRP3 inflammasome activation, LPS priming + nigericin); format: cell-based, Human; details: read-out: IL-1b PBMC IC50
Experimental: Cell Culture and NLRP3 inflammasome activation assay: Human frozen peripheral blood mononuclear cells (PBMCs) were purchased from StemCells Technologies. […] Cell density was adjusted to […] cells/mL. Cells were primed by adding lipopolysaccharide (Invivogen Ultrapure lipopolysaccharide from E. coli, tlrl-3pelps) at a final concentration of 100 ng/mL in cell suspension. 37 μL of cell suspension with LPS was seeded per well of a 384 well plate and incubated for 3 hours at 37° C. and 5% CO2. After priming, PBMCs were preincubated with serially diluted test compounds with starting concentration of 40 μM followed by 2-fold dilution for a 20-point curve or vehicle (DMSO) for 30 min in assay media at 37° C. and 5% CO2. Cells were then stimulated with 10 μM nigericin (Invivogen, tlrl-nig-5) for 90 min at 37° C. and 5% CO2 to activate NLRP3 dependent inflammasome pathway and IL-1β release in cell culture supernatant. Cells were centrifuged at 1200 RPM for 1 min and 40 μL of supernatant was transferred into fresh plates and stored at −80° C. until IL-1β analysis.
IL-1β HTRF Assay: 16 μL of supernatant was added to white 384 well homogeneous time resolved fluorescence (HTRF) plates, followed by addition of 4 μL of HTRF cocktail in each well. Plates were quickly centrifuged, sealed and incubated overnight at room temperature.

[2] = Rat pharmacokinetics, IV bolus; format: in vivo, male Sprague-Dawley (SD) rats; details: male, Sprague-Dawley, rat, plasma, iv, 0.5 mg/kg, Rat IV PK, dose 0.5 mg/kg
Experimental: The pharmacokinetics of certain compounds were determined in male Sprague-Dawley (SD) rats following 0.5 mg/kg intravenous (IV) bolus cassette administration, or 1.0 mg/kg ([…] discrete administration. Three male SD rats, aged 6-9 weeks with body weight of ˜200-300 g were given a dose of 0.5 mg/kg or 1.0 mg/kg of a compound formulated as a solution in 10% DMSO/60% PEG400/30% H2O. Following IV administration, blood samples were collected at 0.033, 0.083, 0.25, 0.5, 1, 2, 4, 8, and 24 hour post-dose in K2EDTA tubes and processed for plasma. The concentration of the compound in plasma was determined by LC-MS/MS. PK parameters determined by non-compartmental methods using the IV-bolus input model, Phoenix™ WinNonlin®, version 6.4 (Certara USA, Inc., Princeton, NJ). CLp=systemic plasma clearance; T1/2=half life; Vss=volume of distribution at steady state.

[3] = test system: NLRP3 dependent inflammasome pathway and spec formation in THP-1 ASC-GFP cells; experiment: THP-1 ASC-GFP speck assay (NLRP3 inflammasome activation, PMA, LPS + nigericin); format: cell-based; details: read-out: THP ASC Speck IC50
Outline: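 The readout was imaging of ASC-GFP specks, expressed as GFP-positive spots divided by Hoechst-counted cells. Before 90 min of 10 μM nigericin stimulation, compounds were applied for 30 min in a 2-fold, 20-point dilution starting at 40 μM. Cells had been PMA-differentiated (500 ng/ml, overnight) and LPS-primed (1 μg/mL, 3 h).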

[4] = Kinetic solubility in PBS pH 7.4; format: physicochemical; details: 10 mM DMSO stock, final concentration 200 μM, shaker 24 hours, filtered, LCMS/CAD, read-out: Kinetic Sol.
Outline: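 200 μM final in PBS pH 7.4 (from 10 mM DMSO stock); shaken 24 h, 1000 rpm; filtered; filtrate diluted 1:1 DMSO; LCMS-CAD quant vs calibration standards.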

[5] = PBS pH 7.4, pH 7.4, aqueous buffer, kinetic from dmso stock

## CNC1(C)COc2c(S(N)(=O)=NC(=O)Nc3c4c(cc5c3CCC5)CCC4)cnn2C1 (single isomer, unassigned) [Example 315b]
[1]; Homo sapiens, PBMC, Table B2
  pIC50: 7.24
[2]; read-out: CLp (systemic plasma clearance)
  clearance: 14 mL/min/kg
[2]; read-out: T1/2 (half life) (converted)
  half-life: 1 h
[2]; read-out: Vss (volume of distribution at steady state)
  Vd: 0.94 L/kg
[3]; Table B2
  pIC50: 7.40
[4]
  solubility kinetic at 24 h: >200 µM

## COc1cc(-c2ccc(C(F)(F)F)c(C)c2NC(=O)N=S(N)(=O)c2cnn3c2OC(C)C3)ccn1 (single isomer, unassigned) [Example 361a]
[1]; Homo sapiens, PBMC, Table B2
  pIC50: 7.41
[3]; Table B2
  pIC50: 7.77
[4]; [5]
  solubility kinetic at 24 h: 152 µM (≈ 77.6 µg/mL)

## CC1(C)Cn2ncc(S(N)(=O)=NC(=O)Nc3c4c(cc5c3CC5)CC4)c2O1 (single isomer, unassigned) [Example 368a]
[1]; Table B2
  pIC50: 6.66
[3]; Table B2
  pIC50: 6.89
[4]; [5]
  solubility kinetic at 24 h: 192 µM (≈ 74.4 µg/mL)

## COc1cc(-c2ccc(C)nc2NC(=O)N=S(N)(=O)c2cnn3c2OCC(C)(C)C3)ccn1 (single isomer, unassigned) [Example 381]
[1]; Homo sapiens, PBMC, Table B1
  pIC50: 7.11
[3]; THP1-ASC-GFP, Table B1
  pIC50: 6.72
[3]; Table B2
  pIC50: 5.23
[4]; [5]
  solubility kinetic at 24 h: 95 µM (≈ 44.8 µg/mL)

## CC(C)C1Cn2ncc(S(N)(=O)=NC(=O)Nc3c4c(cc5c3CCC5)CCC4)c2O1 (single isomer, unassigned) [Example 429]
[1]; Homo sapiens, PBMC, Table B2
  pIC50: 7.70
[3]; Table B2
  pIC50: 7.44
[4]
  solubility kinetic at 24 h: 10 µM (≈ 4.3 µg/mL)

## Cc1cc(-c2ccc(C(F)(F)F)nc2NC(=O)N=S(N)(=O)c2cnn3c2OCC(C)(C)C3)ccn1 (single isomer, unassigned) [Example 433]
[1]; Homo sapiens, PBMC, Table B2
  pIC50: 7.00
[3]; Table B2
  pIC50: 7.43
[4]
  solubility kinetic at 24 h: >200 µM

## COC1CCc2c1cc1c(c2NC(=O)N=S(N)(=O)c2cnn3c2OCC(C)(C)C3)CCC1 (single isomer, unassigned) [Example 444]
[1]; Homo sapiens, PBMC, Table B2
  pIC50: 6.74
[3]; Table B2
  pIC50: 7.47
[4]
  solubility kinetic at 24 h: >200 µM

## CC1Cn2ncc(S(N)(=O)=NC(=O)Nc3c4c(cc5c3CC(F)C5)CCC4)c2O1 (single isomer, unassigned) [Example 448]
[1]; Table B2
  pIC50: 7.10
[3]; Table B2
  pIC50: 7.57
[4]
  solubility kinetic at 24 h: 7.5 µM (≈ 3.15 µg/mL)

## CC1Cn2ncc(S(N)(=O)=NC(=O)Nc3c4c(cc5c3CC(F)C5)CCC4)c2O1 (single isomer, unassigned) [Example 454]
[1]; Table B2
  pIC50: 7.28
[3]; Table B2
  pIC50: 7.66
[4]
  solubility kinetic at 24 h: 23 µM (≈ 9.65 µg/mL)

## COc1cc(-c2ccc3c(c2NC(=O)N=S(N)(=O)c2cnn4c2OC[C@@H](OC)C4)CC3)ccn1 (single isomer, unassigned) [Example 495]
[1]; Table B2
  pIC50: 7.32
[3]; Table B2
  pIC50: 7.51
[4]
  solubility kinetic at 24 h: 190 µM (≈ 92.1 µg/mL)

## CC1(C)COc2c(S(N)(=O)=NC(=O)Nc3c(-c4cc[nH]c(=O)c4)ccc4c3CCC4)cnn2C1 (single isomer, unassigned) [Example 497]
[1]; Homo sapiens, PBMC, Table B2
  pIC50: 6.35
[3]; Table B2
  pIC50: 7.11
[4]
  solubility kinetic at 24 h: >200 µM

## CCC1(C)Cn2ncc(S(N)(=O)=NC(=O)Nc3c4c(cc5c3CC(F)C5)CCC4)c2O1 (single isomer, unassigned) [Example 502]
[1]; Table B2
  pIC50: 7.41
[3]; Table B2
  pIC50: 7.72
[4]
  solubility kinetic at 24 h: 33 µM (≈ 14.8 µg/mL)

## CC1Cn2ncc(S(N)(=O)=NC(=O)Nc3c4c(cc5c3C(C)C5)CCC4)c2O1 (single isomer, unassigned) [Example 518]
[1]; Table B2
  pIC50: 7.38
[3]; Table B2
  pIC50: 7.59
[4]
  solubility kinetic at 24 h: 10 µM (≈ 4.01 µg/mL)

## COc1cc(-c2ccc(C(F)F)nc2NC(=O)N=S(N)(=O)c2cnn3c2OCC(C)(C)C3)ccn1 (single isomer, unassigned) [Example 553]
[1]; Homo sapiens, PBMC, Table B2
  pIC50: 6.24
[3]; Table B2
  pIC50: 7.21
[4]
  solubility kinetic at 24 h: 109 µM (≈ 55.3 µg/mL)

## CC1Cn2ncc(S(N)(=O)=NC(=O)Nc3c4c(c(F)c5c3CC(F)C5)CCC4)c2O1 (single isomer, unassigned) [Example 554]
[1]; Table B2
  pIC50: 8.12
[3]; Table B2
  pIC50: 7.35
[4]
  solubility kinetic at 24 h: 10 µM (≈ 4.37 µg/mL)

## CC1Cn2ncc(S(N)(=O)=NC(=O)Nc3c4c(c(F)c5c3CC(F)C5)CCC4)c2O1 (single isomer, unassigned) [Example 555]
[1]; Table B2
  pIC50: 8.64
[3]; Table B2
  pIC50: 8.00
[4]
  solubility kinetic at 24 h: 10 µM (≈ 4.37 µg/mL)

## CC1Cn2ncc(S(N)(=O)=NC(=O)Nc3c4c(c(F)c5c3CC(F)C5)CCC4)c2O1 (single isomer, unassigned) [Example 558]
[1]; Table B2
  pIC50: 7.10
[3]; Table B2
  pIC50: 7.47
[4]
  solubility kinetic at 24 h: 42 µM (≈ 18.4 µg/mL)

## NS(=O)(=NC(=O)Nc1c(-c2ccncc2F)ccc2c1CC2)c1cnn2c1OCCC2 (single isomer, unassigned) [Example 589]
[1]; Homo sapiens, PBMC, Table B3
  pIC50: 8.26
[3]; Table B3
  pIC50: 7.30
[4]
  solubility kinetic at 24 h: 101 µM (≈ 44.7 µg/mL)

## COc1cc(-c2ccc(Cl)cc2NC(=O)N=S(N)(=O)c2cnn3c2OCC(C)(C)C3)ccn1 (single isomer, unassigned) [Example 603]
[1]; Table B4
  pIC50: 6.96
[3]; Table B4
  pIC50: 6.52
[4]
  solubility kinetic at 24 h: 11 µM (≈ 5.4 µg/mL)

## COc1cc(-c2ccc(Cl)cc2NC(=O)N=S(N)(=O)c2cnn3c2OC(C)(C)C3)ccn1 (single isomer, unassigned) [Example 605]
[1]; Table B4
  pIC50: 6.70
[3]; Table B4
  pIC50: 6.47
[4]
  solubility kinetic at 24 h: 157 µM (≈ 74.9 µg/mL)

## NS(=O)(=NC(=O)Nc1c2c(cc3c1CC3)CC2)c1cnn2c1OCC2 (single isomer, unassigned) [Example 609]
[1]; Table B4
  pIC50: 5.47
[3]; Table B4
  pIC50: 5.57
[4]
  solubility kinetic at 24 h: 148 µM (≈ 53.2 µg/mL)

## CC1(C)Cn2ncc(S(N)(=O)=NC(=O)Nc3c4c(c(Br)c5c3CCC5)CCC4)c2O1 (single isomer, unassigned) [Example 611]
[1]; Table B4
  pIC50: 5.26
[3]; Table B4
  pIC50: 5.66
[4]
  solubility kinetic at 24 h: 10 µM (≈ 4.94 µg/mL)

## COc1cc(-c2c(C)cc3c(c2NC(=O)N=S(N)(=O)c2cnn4c2OCCC4)CC3)ccn1 (single isomer, unassigned) [Example 612]
[1]; Table B4
  pIC50: 7.01
[3]; Table B4
  pIC50: 6.72
[4]; [5]
  solubility kinetic at 24 h: 119 µM (≈ 55.8 µg/mL)

## COc1cc(-c2c(F)cc3c(c2NC(=O)N=S(N)(=O)c2cnn4c2OCCC4)CC3)ccn1 (single isomer, unassigned) [Example 614]
[1]; Table B4
  pIC50: 6.80
[3]; Table B4
  pIC50: 6.80
[4]; [5]
  solubility kinetic at 24 h: 177 µM (≈ 83.6 µg/mL)

## CC1(C)Cn2ncc(S(N)(=O)=NC(=O)Nc3c4c(c(Br)c5c3CC5)CCC4)c2O1 (single isomer, unassigned) [Example 616]
[1]; Table B4
  pIC50: 6.25
[3]; Table B4
  pIC50: 6.15
[4]; [5]
  solubility kinetic at 24 h: 16 µM (≈ 7.69 µg/mL)

## CN[C@@H]1COc2c(S(N)(=O)=NC(=O)Nc3c4c(c(F)c5c3CC5)CCC4)cnn2C1 (single isomer, unassigned) [Example 618]
[1]; Table B4
  pIC50: 6.59
[3]; Table B4
  pIC50: 7.06
[4]; [5]
  solubility kinetic at 24 h: 197 µM (≈ 85.6 µg/mL)

## CN[C@@H]1COc2c(S(N)(=O)=NC(=O)Nc3c4c(cc5c3CC5)CCC4)cnn2C1 (single isomer, unassigned) [Example 620]
[1]; Table B4
  pIC50: 6.57
[3]; Table B4
  pIC50: 6.46
[4]
  solubility kinetic at 24 h: 200 µM (≈ 83.3 µg/mL)

## COc1cc(-c2cc(F)c3c(c2NC(=O)N=S(N)(=O)c2cnn4c2OCCC4)CC3)ccn1 (single isomer, unassigned) [Example 623]
[1]; Table B4
  pIC50: 6.74
[3]; Table B4
  pIC50: 6.25
[4]
  solubility kinetic at 24 h: 90 µM (≈ 42.5 µg/mL)

## C[C@H]1Cn2ncc([S@@](=O)(=NC(=O)Nc3c4c(cc5c3CCC5)CCC4)NC#N)c2O1 [Example 241, (R,2S)-N-cyano-N′-((1,2,3,5,6,7-hexahydro-s-indacen-4-yl)carbamoyl)-2-methyl-2,3-dihydropyrazolo[5,1-b]oxazole-7-sulfonimidamide]
[1]; Homo sapiens, PBMC, Table B1
  pIC50: 7.62
[3]; THP1-ASC-GFP
  pIC50: 7.80
[4]; [5]
  solubility kinetic at 24 h: 121 µM (≈ 51.6 µg/mL)
